Data from patent US20030013656A1, “Pyruvate derivatives” (priority 2001, published 2003).

Tested on: rat middle cerebral artery occlusion (MCAO) model
Experiment: Rat middle cerebral artery occlusion (MCAO) model of cerebral ischemia
Type: in vivo
Settings: 2 h, doses in the range of less than about 1 μg/kg to less than about 10 mg/kg, two hours MCAO, read-out: reduction in total infarct volume
Protocol: Male Wistar rats (Harlan, Ind.) weighing 300-350 g are commonly used in these experiments. Animals are allowed free access to water and commercial rodent diet under standard laboratory conditions. Room temperature is maintained at 20-23° C. and room illumination is on a 12/12-hour light/dark cycle. Animals are acclimatized to the laboratory environment 5 to 7 days prior to the study, and fasted (with free access to water) overnight before surgery.
Anesthesia is maintained by inhalation of 3.0% isoflurane (Aerrane, Front Dodge, Iowa) in […]. The animal's neck is shaved and sterilized before operation. Body temperatures are controlled and maintained at 37.5° C.+/−1 degree via external heating and cooling devices. To lower the body temperature, animals are placed in a cooling chamber that uses ice to cool circulating air. Throughout the study the body temperature is recorded using a temperature transponder (BMDS Inc., Seaford, Del.) implanted subcutaneously at the time of MCAO between the rat shoulder blades, which allows the user to read the body temperature via a pocket scanner (BMDS Inc., Seaford, Del.). The body temperature can also be taken by inserting the temperature probe into the animal's rectum. Body temperature is recorded every hour for 6 hours post-occlusion, but temperature is measured more frequently to facilitate maintaining the animals' normothermic temperature.
Animals are subjected to two hours MCAO using a modified intraluminal filament technique, as follows. A midline incision on the ventral part of the neck is made to expose external and internal carotid arteries. The right external and common carotid arteries are ligated by a suture (silk 5/0, Carlisle Laboratories, Farmers Branch, Tex.) and the right internal artery is temporarily ligated using a microvascular clip (Fine Science Tool Inc., Foster City, Calif.). A small incision is made in the common carotid artery. A nylon filament, its tip rounded by heating, is prepared from a fishing line (Stren Fishing Lines, Wilmington, Del.) and is inserted from the right common carotid artery. The filament is advanced into the internal carotid artery 18-20 mm from the point of bifurcation of internal and external arteries and a suture is tightly ligated around the filament. Two hours post occlusion, animals are re-anesthetized to allow reperfusion for the remaining of the experiment by removal of the filament. C. Drug Administration
Test compounds can be administered by any of a number of routes, such as those described below. Compounds can be administered before, during or after occlusion, as appropriate to the protocol.
One hour after MCAO, the animal is gently held by its tail and observed for forelimb flexion. Then the animal is placed on the floor to be observed for walking pattern; only the animals that score 3 on the Bederson grading system (Table 1) are included in the study.
Twenty-four hours post-MCAO, or longer in some experiments, animals are sacrificed by CO2 asphyxiation (dry ice). The brain is quickly removed from the skull, using standard procedures, rinsed in chilled saline solution, and placed on a rat brain tissue slicer (ASI instrument, MI). Seven 2-mm thick coronal slices are cut from each brain using razor blades. The slices are immersed in 0.9% saline containing 1.0% 2,3,5-triphenyltetrazolume chloride (TTC) (Sigma Chemical Co., St. Louis, Mo.) and incubated in a 37° C. water bath for 30 minutes.
After staining, each 2-mm slice is photographed with a TMC-7 camera (JH Technologies, Ca) which is directly connected to a desktop PC to capture and save the image of each brain slice. This image is used for the measurements of the regions of interest using a computer-based image processing system (Metamorph).
To measure each area, the region of interest is selected using a freehand selection tool, the area is automatically computed by selecting the measure command. […]

SMILES | inhibition in vivo at up to 10 mg/kg [%]
CCOC(=O)C(=O)CSC1=NCCS1 [3-(4,5-dihydro-thiazol-2-ylsulfanyl)-2-oxo-propionic acid ethyl ester] | 20 to 80
CCOC(=O)C(=O)CSc1nc2cc([N+](=O)[O-])ccc2[nH]1 [3-(5-nitro-1H-benzoimidazol-2-ylsulfanyl)-2-oxo-propionic acid ethyl ester] | 20 to 80
CCOC(=O)C(CSCC(NC(=O)CCC(N)C(=O)O)C(=O)NCC(=O)O)=NO (centres unmarked) [2-amino-4-[1-(carboxymethyl-carbamoyl)-2-(2-ethoxycarbonyl-2-hydroxyimino-ethylsulfanyl)-ethylcarbamoyl]-butyric acid] | 20 to 80
CCOC(=O)C(=O)CSc1nc2ccccc2[nH]1 [3-(1H-Benzoimidazol-2-ylsulfanyl)-2-oxo-propionic acid ethyl ester] | 20 to 80
NC(CCC(=O)NC(CSCC(=O)C(=O)N1CCCCC1)C(=O)NCC(=O)O)C(=O)O (centres unmarked) [2-Amino-4-[1-(carboxymethyl-carbamoyl)-2-(2,3-dioxo-3-piperidin-1-yl-propylsulfanyl)-ethylcarbamoyl]-butyric acid] | 20 to 80
NC(CCC(=O)NC(CSCC(=O)C(=O)O)C(=O)NCC(=O)O)C(=O)O (centres unmarked) [2-amino-4-[1-(carboxymethyl-carbamoyl)-2-(2-carboxy-2-oxo-ethylsulfanyl)-ethylcarbamoyl]-butyric acid] | 20 to 80
CCOC(=O)C(=O)CSc1nc2cc(OC)ccc2[nH]1 [3-(5-methoxy-1H-benzoimidazol-2-ylsulfanyl)-2-oxo-propionic acid ethyl ester] | 20 to 80
CCCCOC(=O)C(CSCC(NC(=O)CCC(N)C(=O)O)C(=O)NCC(=O)O)=NOC (centres unmarked) [2-Amino-4-[2-(2-butoxycarbonyl-2-methoxyimino-ethylsulfanyl)-1-(carboxymethyl-carbamoyl)-ethylcarbamoyl]-butyric acid] | 20 to 80
CCCCCCOC(=O)C(=O)CSCC(NC(=O)CCC(N)C(=O)O)C(=O)NCC(=O)O (centres unmarked) [2-amino-4-[1-(carboxymethyl-carbamoyl)-2-(2-hexyloxycarbonyl-2-oxo-ethylsulfanyl)-ethylcarbamoyl]-butyric acid] | 20 to 80
CCOC(=O)/C(CSCC(NC(=O)CCC(N)C(=O)O)C(=O)NCC(=O)O)=N\OC (centres unmarked) [2-Amino-4-[1-(carboxymethyl-carbamoyl)-2-(2-ethoxycarbonyl-2-methoxyimino-ethylsulfanyl)-ethylcarbamoyl]-butyric acid] | 20 to 80
COC(=O)C(Cc1ccccc1)NC(=O)C(=O)CSCC(NC(=O)CCC(N)C(=O)O)C(=O)NCC(=O)O (centres unmarked) [2-Amino-4-{1-(carboxymethyl-carbamoyl)-2-[2-(1-methoxycarbonyl-2-phenyl-ethylcarbamoyl)-2-oxo-ethylsulfanyl]-ethylcarbamoyl}-butyric acid] | 20 to 80
CCOC(=O)C(N)CCC(=O)NC(CSCC(=O)C(=O)O)C(=O)NCC(=O)O (centres unmarked) [2-amino-4-[1-(carboxymethyl-carbamoyl)-2-(2-carboxy-2-oxo-ethylsulfanyl)-ethylcarbamoyl]-butyric acid ethyl ester] | 20 to 80
NC(CCC(=O)NC(CSCC(=NO)C(=O)N1CCCCC1)C(=O)NCC(=O)O)C(=O)O (centres unmarked) [2-Amino-4-[1-(carboxymethyl-carbamoyl)-2-(2-hydroxyimino-3-oxo-3-piperidin-1-yl-propylsulfanyl)-ethylcarbamoyl]-butyric acid] | 20 to 80
CCCCOC(=O)C(CSCC(NC(=O)CCC(N)C(=O)O)C(=O)NCC(=O)O)=NOCc1ccccc1 (centres unmarked) [2-Amino-4-[2-(2-benzyloxyimino-2-butoxycarbonyl-ethylsulfanyl)-1-(carboxymethyl-carbamoyl)-ethylcarbamoyl]-butyric acid] | 20 to 80
